Patent US20200323219A1, “BIOLOGICAL FUNGICIDE COMPOSED BY PLANT EXTRACTS” (JH Biotech Inc., priority 2019, published 2020)

Assays:
Alternaria brassicicola [1] = settings: cited from earlier work
[2] = test system: Magnaporthe grisea (teleomorph: Pyricularia oryzae); settings: 1000 ppm; cited from earlier work
Alternaria brassicicola [3] = assay: Conidial germination of Alternaria brassicicola on slides in a moist chamber; type: cell-based; settings: 24 hours; for Conidial germination rate (%) in different diluted condition 1000X: diluted 1000 times; for Conidial germination rate (%) in different diluted condition 1500X: diluted 1500 times; for Conidial germination rate (%) in different diluted condition 2000X: diluted 2000 times
Description: The tables differ only in how the gallnut and myrobalan are presented. For Table 1-1, gallnut and myrobalan are presented in vol % as described earlier for the Row 6 procedure while Table 1-2 presents the active ingredients of gallnut and myrobalan as concentration (grams/ml). One drop of 20 μl of pathogen conidia suspension (100 conidia per microliter) was mixed with one drop of 20 μl for each of the eight combinations of gallnut and myrobalan formulations, and at dilutions of 750 times, 1000 times, and 1500 times. Each combination was placed on test slides that were maintained at 100% relative humidity at room temperature. The germination rate of 100 conidia on each slide was calculated visually using a microscope following an incubation period of 24 hours. Tables 2-1 and 2-2 show the same plant extract formulations as in Table 1 but including the addition of a surfactant; specifically, either yucca plant extract (Yucca […]) or sodium lauryl sulfate (SLS). Each was added for testing conidial germinations of Alternaria brassicicola. Dilutions were at 1000 times, 1500 times and 2000 times water. 10 vol % of yucca extract or 5 wt. % of SLS was added to the formulations and then used to test the inhibitory effects on conidial germination on the same fungal pathogen Alternaria brassicicola.

Acidovorax citrulli = settings: cited from earlier work
Ralstonia solanacearum = settings: cited from earlier work
[4] = test system: Xanthomonas euvesicatoria; settings: cited from earlier work
[5] = Table 2-2, with surfactant (gms/ml per 100 ml)

| SMILES | inhibition of conidial germination (Alternaria brassicicola [1]) | conidial germination [2] | intrusive behavior of the germinated conidia [2] | Conidial germination rate (%) in different diluted condition 1000X (Alternaria brassicicola [3]; Table 2-1, with surfactant) [%] | Conidial germination rate (%) in different diluted condition 1500X (Alternaria brassicicola [3]; Table 2-1, with surfactant) [%] | Conidial germination rate (%) in different diluted condition 2000X (Alternaria brassicicola [3]; Table 2-1, with surfactant) [%] | Conidial germination rate (%) in different diluted condition 1000X (Alternaria brassicicola [3]; [5]) [%] | Conidial germination rate (%) in different diluted condition 1500X (Alternaria brassicicola [3]; [5]) [%] | Conidial germination rate (%) in different diluted condition 2000X (Alternaria brassicicola [3]; [5]) [%] | kill or inhibit the pathogen (Acidovorax citrulli) | kill or inhibit the pathogen (Ralstonia solanacearum) | kill or inhibit the pathogen [4] |
| --- | --- | --- | --- | --- | --- | --- | --- | --- | --- | --- | --- | --- |
| O=C(O)c1cc(O)c(O)c(O)c1 [gallic acid, 3,4,5-trihydroxybenzoic acid] | effectively inhibit | stop | stop | – | – | – | – | – | – | – | – | – |
| CCCCCCCCCCCCOS(=O)(=O)[O-].[Na+] [sodium lauryl sulfate] | – | – | – | 55 | 90 | 94 | 55 | 90 | 94 | – | – | – |
| COC(=O)c1cc(O)c(O)c(O)c1 [methyl gallate] | – | stop | stop | – | – | – | – | – | – | kill or inhibit | kill or inhibit | kill or inhibit |
